From patent US20210355105A1, “REGULATOR OF NITROGEN-CONTAINING HETEROAROMATIC DERIVATIVES, PREPARATION METHOD THEREFOR AND USE THEREOF” (Jiangsu Hansoh Pharmaceutical Group Co., Ltd., priority 2018, published 2021)

Legend:
[1] = Pharmacokinetics assay in MiaPaca 2 tumor-bearing mice (plasma, tumor tissue, intestine); assay type: in vivo; conditions: female, mouse, oral 6 mg/kg
Protocol: MiaPaca 2 tumor-bearing mice were used as test animals.
Twenty-four female MiaPaca 2 tumor-bearing mice were used. Three mice were used for each time point (0 hour, 1 hour, 2 hours, 4 hours, 6 hours, 8 hours, 16 hours and 24 hours). The mice were purchased from Shanghai Sippr-BK laboratory animal Co. Ltd., with Certificate No.: SCXK (Shanghai) 2018-0006.
The solution was shaked well, and subjected to ultrasound for 15 minutes to obtain a uniform suspension with a concentration of 0.6 mg/mL.
After fast, MiaPaca 2 tumor-bearing mice were administered orally (p.o.) with the test compound according to body weight at an administration dose of 6 mg/kg and an administration volume of 10 mL/kg (the animals were not administered with the test compound on 0 hour).
The mice were euthanized by CO2 before administration and after administration, and 0.5 mL of blood was taken from heart. The blood samples were stored in EDTA-2K tubes, and centrifuged for 6 minutes at 6000 rpm, at 4° C. to separate the blood plasma. The plasma samples were stored at −80° C. The tumor tissue was weighed, placed in a 2 mL centrifuge tube, and stored at −80° C. An appropriate length of duodenum, ileum and colon tissues were taken and cut open with scissors, and the contents were removed. The above tissues were washed with PBS twice, and the moisture was absorbed with absorbent paper. The tissues were weighed, placed in a 2 mL centrifuge tube, and stored at −80° C.

[2] = Tolerance assay in mice; assay type: in vivo, Balb/c mice; conditions: 10 mg/kg QD oral
Protocol: Balb/c mice were used as test animals.
The solution was subjected to ultrasound for 10 minutes to obtain a colorless and clear solution with a concentration of 1 mg/mL.
After an overnight fast, Balb/c mice (3 male and 3 female) were administrated orally with the test compound at an administration dose of 10 mg/kg and an administration volume of 10 mL/kg.
The mice were weighed daily before and after administration, and abnormal responses were observed. The mice were fed four hours after administration.

Structure (SMILES): Nc1nc(N2CCC3(CC2)Cc2ccccc2[C@H]3N)c(F)nc1Sc1ccnc(N)c1Cl [Example 179, (S)-1′-(6-amino-5-((2-amino-3-chloropyridin-4-yl)thio)-3-fluoropyrazin-2-yl)-1,3-dihydrospiro[indene-2,4′-piperidin]-1-amine]
- AUC(0-inf) ([1]; Colon): 9180 ng·h/mL
- Cmax ([1]; Colon): 1310 ng/mL
- MRT ([1]; Colon): 5.8 h
- Tmax ([1]; Colon): 4 h
- half-life ([1]; Colon): 2.8 h
- AUC(0-inf) ([1]; Duodenum): 16300 ng·h/mL
- Cmax ([1]; Duodenum): 5420 ng/mL
- MRT ([1]; Duodenum): 4.8 h
- Tmax ([1]; Duodenum): 1 h
- half-life ([1]; Duodenum): 4.8 h
- AUC(0-inf) ([1]; Ileum): 10000 ng·h/mL
- Cmax ([1]; Ileum): 1930 ng/mL
- MRT ([1]; Ileum): 6.1 h
- Tmax ([1]; Ileum): 2 h
- half-life ([1]; Ileum): 5.3 h
- AUC(0-inf) ([1]; Plasma): 2860 ng·h/mL
- Cmax ([1]; Plasma): 386 ng/mL
- MRT ([1]; Plasma): 7.5 h
- Tmax ([1]; Plasma): 1 h
- half-life ([1]; Plasma): 4.8 h
- AUC(0-inf) ([1]; Tumor): 51800 ng·h/mL
- Cmax ([1]; Tumor): 2390 ng/mL
- MRT ([1]; Tumor): 19.1 h
- Tmax ([1]; Tumor): 8 h
- half-life ([1]; Tumor): 11.5 h
- Body weight (Mean) Day 1 ([2]; female mice): 22.07 g
- Body weight (Mean) Day 16 ([2]; female mice): 25.09 g
- Body weight changes ΔW/W1 (Mean) Day 16 ([2]; female mice): 13.80%
- Body weight (Mean) Day 1 ([2]; male mice): 23.01 g
- Body weight (Mean) Day 16 ([2]; male mice): 28.30 g
- Body weight changes ΔW/W1 (Mean) Day 16 ([2]; male mice): 23.25%
